The text below walks through data of ChEMBL document CHEMBL1681786, “Synthesis, biological evaluation and 3D-QSAR studies of 3-keto salicylic acid chalcones and related amides as novel HIV-1 integrase inhibitors” (Bioorg Med Chem, 2011).

In assay [1] the target is T1, Human immunodeficiency virus type 1 integrase (Human immunodeficiency virus 1, UniProt Q7ZJM1). Kind of assay: Inhibition of Human immunodeficiency virus 1 integrase strand transfer activity after 30 mins by polyacrylamide gel electrophoresis.
Assay [2] deals with T1, Human immunodeficiency virus type 1 integrase. Kind of assay: Inhibition of Human immunodeficiency virus 1 integrase-mediated 3'-processing after 30 mins by polyacrylamide gel electrophoresis.
The test system of assay [3] is Human immunodeficiency virus 1. The assay is described as follows: Antiviral activity against Human immunodeficiency virus 1 LAI infected in human PBMC assessed as inhibition of viral replication after 5 days by reverse transcriptase assay. The format is functional, organism-based. To be noted: 120 h.
For another assay, the system named is PBMC. Kind of assay: Cytotoxicity against human PBMC after 6 days by trypan blue assay. To be noted: 144 h.
The subject of another assay is CCRF-CEM. Kind of assay: Cytotoxicity against human CEM cells after 6 days by trypan blue assay. To be noted: 144 h.

Structures are written as SMILES.

T1 sequence (Q7ZJM1 whole entry): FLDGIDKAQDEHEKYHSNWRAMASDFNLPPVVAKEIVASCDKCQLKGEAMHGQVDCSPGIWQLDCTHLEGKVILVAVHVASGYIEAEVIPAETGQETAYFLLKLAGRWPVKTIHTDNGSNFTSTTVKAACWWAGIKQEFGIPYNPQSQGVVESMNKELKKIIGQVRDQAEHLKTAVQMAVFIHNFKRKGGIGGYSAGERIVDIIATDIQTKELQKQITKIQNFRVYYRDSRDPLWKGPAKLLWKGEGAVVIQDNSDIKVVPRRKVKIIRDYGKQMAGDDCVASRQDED

Regarding `COc1ccc(/C=C/C(=O)c2cc(Br)cc(C(=O)O)c2O)c(OC)c1OC`, the results for the IC50 in assay [1] and in assay [2] were 51 µM and 85 µM, respectively.

In the case of `O=C(O)c1cc(Br)cc(C(=O)/C=C/c2cc(Cl)ccc2Cl)c1O`, the results for the half-maximal inhibitory concentration (IC50) in assay [1] and in assay [2] were 18 µM and 47 µM, respectively.

As for `O=C(O)c1cc(Br)cc(C(=O)/C=C/c2c(Cl)cccc2Cl)c1O`, the IC50 in assay [1] was determined as 16 µM; in assay [2] it was 52 µM.

Regarding `O=C(O)c1cc(Br)cc(C(=O)/C=C/c2ccc(Cl)c(Cl)c2)c1O`, the results for the IC50 in assay [1] and in assay [2] were 14 µM and 27 µM, respectively.

With `O=C(O)c1cc(Br)cc(C(=O)/C=C/c2cc(Cl)cc(Cl)c2Cl)c1O`, the half-inhibitory concentration (IC50) in assay [1] turned out to be 13 µM; in assay [2], 20 µM.

On to `O=C(O)c1cc(Br)cc(C(=O)/C=C/c2c(Cl)ccc(Cl)c2Cl)c1O`, for which the IC50 is less than 3.7 µM in assay [1], 23 µM in assay [2], 22.7 µM in the assay with PBMC and 19 µM in the assay on CCRF-CEM. Moreover, the EC50 in assay [3] is 7.3 µM. Further, in assay [3], the EC90 came out at 20.3 µM.

Turning to `O=C(O)c1cc(Cl)cc(C(=O)/C=C/c2ccc(Cl)cc2)c1O`, the IC50 in assay [1] came to 53 µM; in assay [2], 85 µM.

In the case of `O=C(O)c1cc(Cl)cc(C(=O)/C=C/c2ccc(Cl)cc2Cl)c1O`, the half-maximal inhibitory concentration (IC50) in assay [1] and in assay [2] was greater than 100 µM throughout.

Turning to `O=C(O)c1cc(Cl)cc(C(=O)/C=C/c2cccc(Cl)c2Cl)c1O`, the half-inhibitory concentration (IC50) is 92 µM in assay [1] and 100 µM in assay [2].

Regarding `O=C(O)c1cc(Cl)cc(C(=O)/C=C/c2cc(Cl)ccc2Cl)c1O`, the IC50 was determined as 25 µM in assay [1] and 75 µM in assay [2].

On to `O=C(O)c1cc(Cl)cc(C(=O)/C=C/c2cc(Cl)cc(Cl)c2Cl)c1O`, for which the IC50 in assay [1] was 17 µM; in assay [2] it was 55 µM.

As for `O=C(O)c1cc(Cl)cc(C(=O)/C=C/c2c(Cl)ccc(Cl)c2Cl)c1O`, the values for the half-maximal inhibitory concentration (IC50) in assay [1] and in assay [2] were 30 µM and 77 µM, respectively.

For the molecule `O=C(O)c1cc(Cl)cc(C(=O)/C=C/c2ccc(Cl)c(Cl)c2)c1O`, the half-inhibitory concentration (IC50) in assay [1] was 41 µM; in assay [2], 87 µM.

As for `O=C(O)c1cc(F)cc(C(=O)/C=C/c2ccc(Cl)cc2)c1O`, the 50% inhibitory concentration (IC50) in assay [1] is 17 µM; in assay [2], 36 µM.

Take `O=C(O)c1cc(F)cc(C(=O)/C=C/c2ccc(Cl)cc2Cl)c1O`: the figures for the 50% inhibitory concentration (IC50) in assay [1] and in assay [2] were 24 µM and 52 µM, respectively.

Take `O=C(O)c1cc(F)cc(C(=O)/C=C/c2cccc(Cl)c2Cl)c1O`: the figures for the IC50 in assay [1] and in assay [2] were 30 µM and 55 µM, respectively.

Turning to `O=C(O)c1cc(F)cc(C(=O)/C=C/c2cc(Cl)ccc2Cl)c1O`, the IC50 in assay [1] amounted to 29 µM; in assay [2], 50 µM.

As to `O=C(O)c1cc(F)cc(C(=O)/C=C/c2cc(Cl)cc(Cl)c2Cl)c1O`, the 50% inhibitory concentration (IC50) in assay [1] was found to be 15 µM; in assay [2], 33 µM.

As to `O=C(O)c1cc(F)cc(C(=O)/C=C/c2c(Cl)ccc(Cl)c2Cl)c1O`, the IC50 stood at 39 µM in assay [1] and 82 µM in assay [2].

For `Cc1cc(C)cc(/C=C/C(=O)c2cc(Br)cc(C(=O)O)c2O)c1`, the 50% inhibitory concentration (IC50) is 58 µM in assay [1] and greater than 100 µM in assay [2].

Consider `COc1ccc(/C=C/C(=O)c2cc(Br)cc(C(=O)O)c2O)c(Cl)c1OC`, for which the results for the IC50 in assay [1] and in assay [2] were 76 µM and greater than 100 µM, respectively.

As to `COc1cc(F)c(/C=C/C(=O)c2cc(Br)cc(C(=O)O)c2O)cc1OC`, the IC50 in assay [1] was 76 µM; in assay [2], greater than 100 µM.

For the molecule `O=C(O)c1cc(Br)cc(C(=O)/C=C/c2ccccc2OCc2ccccc2)c1O`, the IC50 in assay [1] turned out to be 9 µM; in assay [2], 21 µM.

Turning to `O=C(O)c1cc(Br)cc(C(=O)/C=C/c2cccc(Oc3ccc(Cl)cc3)c2)c1O`, the IC50 in assay [1] is 18 µM; in assay [2], 25 µM.

On to `O=C(O)c1cc(Br)cc(C(=O)/C=C/c2ccc(Oc3ccc(Cl)cc3)cc2)c1O`, for which the IC50 was 16 µM in assay [1] and 22 µM in assay [2].

`O=C(O)c1cc(Br)cc(C(=O)/C=C/c2ccsc2)c1O`: the IC50 in assay [1] turned out to be 18 µM; in assay [2], 30 µM.

Turning to `COc1ccc(/C=C/C(=O)c2cc(Br)cc(C(=O)O)c2O)cc1OC1CCCC1`, the concentration for half-maximal inhibition (IC50) turned out to be 55 µM in assay [1] and 100 µM in assay [2].

For `CCOc1ccc2ccccc2c1/C=C/C(=O)c1cc(Br)cc(C(=O)O)c1O`, the 50% inhibitory concentration (IC50) in assay [1] is 46 µM; in assay [2], 92 µM.

Molecule `COc1cccc2c(/C=C/C(=O)c3cc(Br)cc(C(=O)O)c3O)cccc12` came in with a half-inhibitory concentration (IC50) in assay [2] of 54 µM.

Consider `O=C(O)c1cc(Br)cc(C(=O)/C=C/c2ccc3sccc3c2)c1O`, for which the IC50 in assay [1] came out at 11 µM; in assay [2] it was 23 µM; in the assay with PBMC, 39.1 µM; in the assay with CCRF-CEM, 20.7 µM. The concentration giving a half-maximal response (EC50) in assay [3] came out at 10.1 µM. For the same molecule, in assay [3], the EC90 stood at 24.3 µM.

`O=C(O)c1cc(Br)cc(C(=O)/C=C/c2ccccc2-c2ccco2)c1O`: the concentration for half-maximal inhibition (IC50) was 16 µM in assay [1] and greater than 100 µM in assay [2].

Take `O=C(O)c1cc(Br)cc(C(=O)/C=C/c2cc3c(cc2Cl)OCO3)c1O`: the 50% inhibitory concentration (IC50) is 63 µM in assay [1] and 79 µM in assay [2].

`O=C(O)c1cc(Br)cc(C(=O)/C=C/c2cccc(OC(F)(F)F)c2)c1O`: the figures for the IC50 in assay [1] and in assay [2] were 52 µM and greater than 100 µM, respectively.

Consider `O=C(O)c1cc(Br)cc(C(=O)/C=C/c2cccc([N+](=O)[O-])c2)c1O`, for which the IC50 in assay [1] was 32 µM; in assay [2] it was 49 µM.

As to `O=C(O)c1cc(Br)cc(C(=O)/C=C/c2cccc(Br)c2)c1O`, the IC50 in assay [1] worked out at 18 µM; in assay [2], 19 µM.

For `O=C(O)c1cc(Br)cc(C(=O)/C=C/c2cccc(F)c2)c1O`, the half-maximal inhibitory concentration (IC50) was determined as 59 µM in assay [1] and 71 µM in assay [2].

Turning to `N#Cc1cc(Br)cc(C(=O)/C=C/c2c(Cl)ccc(Cl)c2Cl)c1O`, the IC50 in assay [1] was 44 µM; in assay [2], greater than 100 µM.

For the molecule `Cc1cc(C(=O)O)c(O)c(C(=O)/C=C/c2c(Cl)ccc(Cl)c2Cl)c1`, the IC50 in assay [1] was 50 µM; in assay [2], greater than 100 µM.

In the case of `O=C(/C=C/c1cc(Br)cc([N+](=O)[O-])c1O)c1cc(Cl)cc(Cl)c1Cl`, in assay [2], the half-maximal inhibitory concentration (IC50) is greater than 333 µM.

On to `O=Cc1cc(Br)cc(C(=O)NCc2ccc(F)cc2)c1O`, for which the IC50 in assay [1] is 8 µM; in assay [2] it was greater than 100 µM; in the assay with PBMC, 44 µM; in the assay on CCRF-CEM it was 40.2 µM. Besides, in assay [3], the 50% effective concentration (EC50) is 30.8 µM. Besides, the EC90 in assay [3] was 52.7 µM.

With `O=C(O)c1cc(F)cc(C(=O)CCc2cc(Cl)ccc2Cl)c1O`, the half-maximal inhibitory concentration (IC50) in assay [1] was 57 µM; in assay [2] it was greater than 100 µM.

In the case of `O=C(O)c1cc(Br)cc(C(=O)NCc2ccc(F)cc2)c1O`, the IC50 is 15 µM in assay [1] and greater than 100 µM in assay [2].

As for `Cc1cccc(C(=O)NCc2ccc(F)cc2)c1O`, the IC50 in assay [1] and in assay [2] was greater than 100 µM in each case.

For `O=C(NCc1ccc(F)cc1)c1cc(Br)ccc1O`, the IC50 in assay [1] and in assay [2] was greater than 100 µM in each case.

Take `O=C(O)c1cc(Br)cc(C(=O)/C=C/c2ccccc2)c1O`: the IC50 amounted to 25 µM in assay [1] and 75 µM in assay [2].

Turning to `O=C(O)c1cc(Br)cc(C(=O)/C=C/c2ccccc2Cl)c1O`, the figures for the IC50 in assay [1] and in assay [2] were 14 µM and 52 µM, respectively.

Take `O=C(O)c1cc(Br)cc(C(=O)/C=C/c2ccccc2F)c1O`: the IC50 in assay [1] stood at 32 µM; in assay [2] it was 74 µM.

With `O=C(O)c1cc(Br)cc(C(=O)/C=C/c2cccc(Cl)c2)c1O`, the IC50 was found to be 9 µM in assay [1] and 45 µM in assay [2].

Turning to `O=C(O)c1cc(Br)cc(C(=O)/C=C/c2ccc(Cl)cc2)c1O`, the IC50 in assay [1] is 12 µM; in assay [2], 81 µM.

On to `O=C(O)c1cc(Br)cc(C(=O)/C=C/c2ccc(Br)cc2)c1O`, for which the IC50 in assay [1] worked out at 5 µM; in assay [2] it was 11 µM; with PBMC, 24.4 µM; with CCRF-CEM it was 27.5 µM. The half-maximal effective concentration (EC50) in assay [3] is 8.7 µM. In addition, in assay [3], the EC90 was determined as 21 µM.

For `O=C(O)c1cc(Br)cc(C(=O)/C=C/c2ccc(I)cc2)c1O`, the IC50 in assay [1] turned out to be 35 µM; in assay [2], 69 µM.

As for `O=C(O)c1cc(Br)cc(C(=O)/C=C/c2ccc(Cl)cc2Cl)c1O`, the half-maximal inhibitory concentration (IC50) in assay [1] was 7 µM; in assay [2] it was 28 µM; in the assay on PBMC, 22.1 µM; in the assay on CCRF-CEM, 23.8 µM. Also, the half-maximal effective concentration (EC50) in assay [3] turned out to be 13.9 µM. For the same molecule, the EC90 in assay [3] worked out at 26 µM.

Take `O=C(O)c1cc(Br)cc(C(=O)/C=C/c2cccc(Cl)c2Cl)c1O`: the IC50 was 19 µM in assay [1] and 58 µM in assay [2].

In the case of `COc1cccc(/C=C/C(=O)c2cc(Br)cc(C(=O)O)c2O)c1OC`, the IC50 in assay [1] came out at 34 µM; in assay [2] it was 62 µM.

As for `Cc1cn([C@H]2C[C@H](N=[N+]=[N-])[C@@H](CO)O2)c(=O)[nH]c1=O` [ZIDOVUDINE], in assay [3], the half-maximal effective concentration (EC50) was found to be 0.0025 µM and the EC90 turned out to be 0.01 µM. This molecule also gave a concentration for half-maximal inhibition (IC50) with PBMC greater than 100 µM. Moreover, the IC50 with CCRF-CEM is 56.1 µM.
